The target in test [1] is T1, 11β-HSD1 (Homo sapiens, UniProt P28845). The experiment in a line: biochemical. The conditions noted are these: for IC50: IC50 Range, Biological Test Example 1, microsomes from CHO cells overexpressing human 11β-HSD1; for inhibition at 0.1 µM: read-out: Average % inhibition at 100 nM, Biological Test Example 1, 100 nM compound.
Test [2] addresses T1, 11β-HSD1. As to conditions: for IC50: read-out: IC50 Range.
The mark [3] stands for this setting: Biological Test Example 1, 100 nM compound, 0.1 µM.
Setting [4] is: Biological Test Example 1, 100 nM, 0.1 µM.
Where [5] appears, read: Biological Test Example 1, microsomes from CHO cells overexpressing human 11β-HSD1.
[6] abbreviates: Biological Test Example 1, 111.1 nM compound, 0.1111 µM.

Like-named read-outs stand apart in the source and are kept apart here. A value given as a limit tells only on which side of the number the result lay.

T1 sequence (P28845 whole entry): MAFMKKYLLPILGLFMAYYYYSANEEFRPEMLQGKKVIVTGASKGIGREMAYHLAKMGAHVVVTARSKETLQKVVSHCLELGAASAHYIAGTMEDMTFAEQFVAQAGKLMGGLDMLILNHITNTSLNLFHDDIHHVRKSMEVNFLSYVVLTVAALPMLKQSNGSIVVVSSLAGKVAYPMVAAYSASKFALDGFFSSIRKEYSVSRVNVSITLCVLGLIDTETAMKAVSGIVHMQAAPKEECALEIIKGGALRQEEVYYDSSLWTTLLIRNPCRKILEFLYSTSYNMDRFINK

Usually IC50 stands for the concentration needed to halve the response being measured. `C[C@@H](c1ccc(-c2ccc(F)cc2F)cc1)N1CC[C@](CC(O)CN(C)C)(c2ccc(F)cc2)OC1=O` (single isomer, unassigned) [EXAMPLE 273 Isomer 2] showed an IC50 in test [1] greater than 100 nM. Further, the “Average % inhibition at 100 nM” value in test [2] (setting [3]) is 17.9%.
`COc1ccc([C@H](C)N2CCC(CCCO)(C(C)C)OC2=O)cc1` (single isomer, unassigned) [EXAMPLE 332 Isomer 1]: the IC50 in test [1] is less than 100 nM. In addition, the “Average % inhibition at 100 nM” value in test [2] (setting [4]) is recorded as 97.8%.
Usually inhibition stands for the relative decrease from the control value, in per cent. `C=CCC1(c2ccc(F)cc2)CCN([C@@H](CC)c2ccc(Br)cc2)C(=O)O1` (single isomer, unassigned) [EXAMPLE 130 Isomer 2]: the inhibition at 0.1111 µM in test [1] (read-out: Average % inhibition at 111.1 nM, Biological Test Example 1, 111.1 nM compound) amounted to 87.7%. Moreover, the IC50 in test [2] (setting [5]) is less than 100 nM.
In test [1], `C[C@@H](c1ccc(Br)cc1)N1CCC(CCO)(c2ccc(F)cc2F)OC1=O` (single isomer, unassigned) [EXAMPLE 365 Isomer 1] registered an IC50 of less than 100 nM. The “Average % inhibition at 100 nM” value in test [2] (setting [4]) amounted to 97.5%.
`CC(C)(C)OC(=O)N1CCC(N2CCC(CCCO)(c3ccccc3)OC2=O)C1` (single isomer, unassigned) [EXAMPLE 208 Isomer 2] registered an IC50 in test [1] greater than 100 nM. In test [2] (setting [3]), the “Average % inhibition at 100 nM” value came out at 38.5%.
Consider `C=CCC1(c2ccc(F)cc2)CCN([C@@H](C)c2ccc(Br)cn2)C(=O)O1` (single isomer, unassigned) [EXAMPLE 128 Isomer 1], for which, in test [1], the IC50 fell in the range of 100 to 1000 nM and the inhibition at 0.1 µM worked out at 26.1%. In test [2] (setting [6]), the “Average % inhibition at 111.1 nM” value stood at 27.5%.
Consider `C[C@@H](c1ccc(-c2ccc(F)cc2F)cc1)N1CCC(CCO)(C(C)(C)C)OC1=O` (single isomer, unassigned) [EXAMPLE 336 Isomer 1], for which the IC50 in test [1] is less than 100 nM. Further, the “Average % inhibition at 100 nM” value in test [2] (setting [4]) worked out at 50.8%.
Take `C[C@@H](c1ccc(Br)cc1)N1CC[C@](CC(O)CO)(c2ccc(F)cc2)OC1=O` (single isomer, unassigned) [EXAMPLE 144 Isomer 2]: the inhibition at 0.1 µM in test [1] was determined as 95.3%. The “Average % inhibition at 111.1 nM” value in test [2] (setting [6]) is reported as 96.6%. In test [2] (setting [5]), the IC50 was less than 100 nM.
In test [1], `CC(C)C1(CCC(N)=O)CCN([C@@H](C)c2ccc(Cl)cc2)C(=O)O1` (single isomer, unassigned) [EXAMPLE 334 Isomer 1] showed an IC50 of less than 100 nM. Also, the “Average % inhibition at 100 nM” value in test [2] (setting [4]) was 96.6%.
For `COc1ccc([C@H](C)N2CCC(CCCO)(C(C)C)OC2=O)cc1` (single isomer, unassigned) [EXAMPLE 332 Isomer 2] the same measures were greater than 100 nM and 32.2%.
Consider `COc1ccc([C@H](C)N2CCC(CC(O)CO)(c3ccccc3)OC2=O)cc1` (single isomer, unassigned) [EXAMPLE 286 Isomer 4], for which the IC50 in test [1] is greater than 100 nM. Further, the “Average % inhibition at 100 nM” value in test [2] (setting [3]) is 29.3%.
The molecule `COc1ccc([C@H](C)N2CCC(CCCO)(c3ccc(F)cc3)OC2=O)cc1` (single isomer, unassigned) [EXAMPLE 201 Isomer 1] registered an IC50 in test [1] of less than 100 nM. In test [2] (setting [3]), the “Average % inhibition at 100 nM” value is reported as 93.2%.
In test [1], `COc1ccc([C@H](C)N2CCC(CCC(N)=O)(C(C)C)OC2=O)cc1` (single isomer, unassigned) [EXAMPLE 333 Isomer 2] had an IC50 greater than 100 nM. Besides, the “Average % inhibition at 100 nM” value in test [2] (setting [4]) came out at 9.1%.
On to `CC(C)(C)OC(=O)N1CCC(N2CCC(CCCO)(c3ccccc3)OC2=O)C1` (single isomer, unassigned) [EXAMPLE 208 Isomer 4], for which, in test [1], the concentration for half-maximal inhibition (IC50) was less than 100 nM. In addition, in test [2] (setting [3]), the “Average % inhibition at 100 nM” value was found to be 29.3%.
In test [1], `COc1ccc([C@H](C)N2CCC(CC(O)CO)(c3ccccc3)OC2=O)cc1` (single isomer, unassigned) [EXAMPLE 286 Isomer 2] returned an IC50 of less than 100 nM. In addition, the “Average % inhibition at 100 nM” value in test [2] (setting [3]) turned out to be 94.5%.
As for `CC[C@@H](c1ccc(Br)cc1)N1CCC(CCO)(c2ccc(F)cc2)OC1=O` (single isomer, unassigned) [EXAMPLE 143 Isomer 2], the inhibition at 0.1 µM in test [1] turned out to be 95.4%. The IC50 in test [2] (setting [5]) was less than 100 nM.
On to `O=C1OC(CCO)(c2ccccc2F)CCN1c1cccc(-c2ccc(F)cc2)n1` (single isomer, unassigned) [EXAMPLE 104 Isomer 2], for which the 50% inhibitory concentration (IC50) in test [1] is less than 100 nM. In addition, in test [2] (setting [6]), the “Average % inhibition at 111.1 nM” value is on record as 98.1%.
On to `CC(C)C1(CC(O)CO)CCN([C@@H](C)c2ccc(-c3ccc(F)cc3F)cc2)C(=O)O1` (single isomer, unassigned) [EXAMPLE 223 Isomer 1], for which the half-maximal inhibitory concentration (IC50) in test [1] was less than 100 nM. The “Average % inhibition at 100 nM” value in test [2] (setting [3]) is listed as 94.2%.
For `C[C@@H](c1ccc(-c2ccc(F)cc2F)cc1)N1CC[C@](CC(O)CNC(N)=O)(c2ccc(F)cc2)OC1=O` (single isomer, unassigned) [EXAMPLE 276 Isomer 2] the same measures were greater than 100 nM and 35.4%.
For `CC(C)C1(CC(O)CO)CCN([C@@H](C)c2ccc(-c3ccc(F)cc3F)cc2)C(=O)O1` (single isomer, unassigned) [EXAMPLE 223 Isomer 2] the same measures were less than 100 nM and 97.1%.
Molecule `O=C1OC(CCO)(c2ccccc2)CCN1c1ccc(F)c(-c2ccc(F)cc2)c1` (single isomer, unassigned) [EXAMPLE 96 Isomer 2] yielded a concentration for half-maximal inhibition (IC50) in test [1] greater than 1000 nM. The “Average % inhibition at 111.1 nM” value in test [2] (setting [6]) was found to be 9.7%.
The molecule `C[C@@H](c1ccccc1)N1CCC(CO)(c2ccc(F)cc2)OC1=O` (single isomer, unassigned) [EXAMPLE 114 Isomer 1] gave an IC50 in test [1] greater than 1000 nM. Besides, the “Average % inhibition at 100 nM” value in test [2] (setting [3]) was 17.4%.
In test [1], `CC1CC(CCO)(c2ccc(F)cc2)OC(=O)N1[C@@H](C)c1ccc(Br)cc1` (single isomer, unassigned) [EXAMPLE 163 Isomer 2] came in with a 50% inhibitory concentration (IC50) of less than 100 nM. In addition, the “Average % inhibition at 100 nM” value in test [2] (setting [3]) was 96.9%.
For `COc1ccc([C@H](C)N2CCC(CC(O)CO)(c3ccccc3)OC2=O)cc1` (single isomer, unassigned) [EXAMPLE 286 Isomer 3] the same measures were less than 100 nM and 70.5%.
For `O=C1OC(CCCO)(c2ccccc2)CCN1C1CC1c1ccccc1` (single isomer, unassigned) [EXAMPLE 188 Isomer 1, 6-(3-hydroxypropyl)-6-phenyl-3-(2-phenylcyclopropyl)-1,3-oxazinan-2-one] the same measures were less than 100 nM and 77.0%.
For `CC1CC(CCO)(c2ccc(F)cc2)OC(=O)N1[C@@H](C)c1ccc(Br)cc1` (single isomer, unassigned) [EXAMPLE 163 Isomer 3] the same measures were greater than 100 nM and 11.3%.
As to `O=C1OC(CCO)(c2ccccc2F)CCN1c1cccc(-c2ccc(F)cc2)n1` (single isomer, unassigned) [EXAMPLE 104 Isomer 1], the IC50 in test [1] was 100 to 1000 nM. Also, in test [2] (setting [6]), the “Average % inhibition at 111.1 nM” value is 44.3%.
On to `C=CCC1(c2cccs2)CCN([C@@H](C)c2ccc(-c3ccc(F)cc3)cc2)C(=O)O1` (single isomer, unassigned) [EXAMPLE 160 Isomer 2], for which the inhibition at 0.1 µM in test [1] amounted to 95.9%. Also, the “Average % inhibition at 111.1 nM” value in test [2] (setting [6]) is listed as 95.2%. In addition, the IC50 in test [2] (setting [5]) is less than 100 nM.
For the molecule `C[C@@H](c1ccc(Br)cc1)N1CCC(CCCO)(C(C)(C)C)OC1=O` (single isomer, unassigned) [EXAMPLE 335 Isomer 2], the “Average % inhibition at 100 nM” value in test [2] (setting [4]) is recorded as 96.7%. Also, in test [2] (setting [5]), the IC50 was less than 100 nM.
For `CC(O)C[C@]1(c2ccc(F)cc2)CCN([C@@H](C)c2ccc(Br)cc2)C(=O)O1` (single isomer, unassigned) [EXAMPLE 371 Isomer 2] the same measures were 97.4% and less than 100 nM.
Turning to “(R)-3-((S)-1-(2′,4′-difluorobiphenyl-4-yl)propyl)-6-(4-fluorophenyl)-6-(2-hydroxyethyl)-1,3-oxazinan-2-one [EXAMPLE 175 Isomer 2]”, in test [2], the “Average % inhibition at 111.1 nM” value came to 25.8% and the half-inhibitory concentration (IC50) lay within 100 to 1000 nM.
With `C[C@H](c1ccccc1)N1CCC(C)(c2ccccc2)OC1=O` (single isomer, unassigned) [EXAMPLE 83 Isomer 2], the “Average % inhibition at 111.1 nM” value in test [2] (setting [6]) is given as 45.8%. Further, in test [2] (setting [5]), the half-inhibitory concentration (IC50) lay within 100 to 1000 nM.
As for `CC(O)C[C@]1(c2ccc(F)cc2)CCN([C@@H](C)c2ccc(C(F)(F)F)cc2)C(=O)O1` (single isomer, unassigned) [EXAMPLE 388 Isomer 2], the “Average % inhibition at 100 nM” value in test [2] (setting [4]) worked out at 94.7%. In addition, the IC50 in test [2] (setting [5]) was less than 100 nM.
For `C[C@@H](c1ccc(-c2ccc(F)cc2F)cc1)N1CCC(CCO)(C(C)(C)C)OC1=O` (single isomer, unassigned) [EXAMPLE 336 Isomer 2] the same measures were 94.6% and less than 100 nM.
Consider `CC[C@@H](c1ccc(Br)cc1)N1CC[C@](CC(O)CO)(c2ccc(F)cc2)OC1=O` (single isomer, unassigned) [EXAMPLE 255 Isomer 2], for which the “Average % inhibition at 100 nM” value in test [2] (setting [3]) came to 89.3%. For the same molecule, the IC50 in test [2] (setting [5]) was less than 100 nM.
Consider “(S)-6-(3-hydroxypropyl)-3-((S)-1-(4-methoxyphenyl)ethyl)-6-phenyl-1,3-oxazinan-2-one [EXAMPLE 282 Isomer 2]”, for which, in test [2], the “Average % inhibition at 100 nM” value was determined as 77.8% and the IC50 was less than 100 nM.
As for `C[C@@H](c1ccc(-c2ccc(F)cc2F)cc1)N1CCC(CCCO)(c2cccs2)OC1=O` (single isomer, unassigned) [EXAMPLE 171 Isomer 2], the “Average % inhibition at 100 nM” value in test [2] (setting [3]) is reported as 68.6%. Further, in test [2] (setting [5]), the half-maximal inhibitory concentration (IC50) is less than 100 nM.
For `C[C@@H](c1ccc(-c2ccc(F)cc2F)cc1)N1CC[C@](CC(O)CO)(c2ccccc2)OC1=O` (single isomer, unassigned) [EXAMPLE 173 Isomer 2] the same measures were 94.5% and less than 100 nM.
